Measured values from the NIST ThermoML archive (doi:10.1021/je050261u).

Test: xn = mol fraction of the nth substance listed
Details: Liquid, Vibrating tube method

CCCCCCC [heptane] + CCO
mass density [kg/m3]
Details	x2 = 0	x2 = 0.125	x2 = 0.25	x2 = 0.375	x2 = 0.5	x2 = 0.625	x2 = 0.75	x2 = 0.875
293.15 K, 100 kPa	683.9	688.1	694.5	701.9	711.2	722.6	737.9	758.9
293.15 K, 5000 kPa	688.2	692.5	699	706.4	715.7	727.1	742.3	763.2
293.15 K, 10000 kPa	692.5	696.8	703.3	710.9	719.9	731.4	746.6	767.4
293.15 K, 15000 kPa	696.5	701	707.3	714.9	724	735.4	750.7	771.4
293.15 K, 20000 kPa	700.5	704.9	711.3	718.9	728	739.4	754.6	775.3
293.15 K, 25000 kPa	704.1	708.5	714.9	722.4	731.6	743	758.3	778.9
293.15 K, 30000 kPa	707.5	712	718.4	725.9	735.1	746.5	761.7	782.3
293.15 K, 35000 kPa	710.8	715.4	721.7	729.3	738.5	749.9	765.1	785.6
293.15 K, 40000 kPa	714	718.4	725	732.5	741.7	753.1	768.4	788.9
293.15 K, 45000 kPa	716.9	721.5	728	735.5	744.9	756.2	771.4	791.9
293.15 K, 50000 kPa	719.8	724.5	731.1	738.5	747.9	759.3	774.5	794.9
293.15 K, 55000 kPa	722.7	727.4	733.9	741.4	750.8	762.2	777.4	797.8
293.15 K, 60000 kPa	725.4	730.2	736.7	744.2	753.6	765	780.2	800.6
293.15 K, 65000 kPa	728	732.9	739.4	746.9	756.3	767.8	782.9	803.4
303.15 K, 100 kPa	675.1	679.8	685.3	692.7	701.9	713.4	728.9	749.9
303.15 K, 5000 kPa	680	684.8	690.2	697.6	706.9	718.3	733.7	754.6
303.15 K, 10000 kPa	684.4	689.3	694.8	702.1	711.4	722.8	738.2	759
303.15 K, 15000 kPa	688.9	693.8	699.3	706.8	715.9	727.4	742.7	763.3
303.15 K, 20000 kPa	692.8	697.8	703.4	710.7	720	731.4	746.7	767.3
303.15 K, 25000 kPa	696.8	701.7	707.3	714.7	723.9	735.4	750.6	771.1
303.15 K, 30000 kPa	700.3	705.3	710.9	718.3	727.5	739	754.2	774.7
303.15 K, 35000 kPa	703.7	708.9	714.4	721.8	731.1	742.6	757.7	778.2
303.15 K, 40000 kPa	707.1	712.3	717.9	725.3	734.5	746	761.2	781.5
303.15 K, 45000 kPa	710.2	715.4	721.1	728.5	737.7	749.2	764.4	784.8
303.15 K, 50000 kPa	713.4	718.5	724.2	731.6	740.8	752.2	767.5	787.9
303.15 K, 55000 kPa	716.4	721.4	727.3	734.7	743.9	755.3	770.6	791
303.15 K, 60000 kPa	719.2	724.4	730.2	737.5	746.9	758.3	773.5	793.9
303.15 K, 65000 kPa	722	727.2	733	740.4	749.7	761.1	776.4	796.7
313.15 K, 100 kPa	666.4	670.7	676	683.3	692.6	704.2	719.8	740.8
313.15 K, 5000 kPa	671.6	676.1	681.4	688.7	697.9	709.5	724.9	745.8
313.15 K, 10000 kPa	676.5	681.1	686.4	693.6	702.9	714.3	729.8	750.5
313.15 K, 15000 kPa	681	685.6	690.9	698.2	707.5	718.9	734.3	755
313.15 K, 20000 kPa	685.3	689.9	695.3	702.6	711.9	723.3	738.5	759.1
313.15 K, 25000 kPa	689.4	694	699.4	706.7	716	727.4	742.6	763.1
313.15 K, 30000 kPa	693.3	697.9	703.4	710.5	719.9	731.3	746.5	766.9
313.15 K, 35000 kPa	696.9	701.6	707	714.3	723.6	735	750.3	770.6
313.15 K, 40000 kPa	700.4	705.2	710.6	717.9	727.2	738.6	753.8	774.1
313.15 K, 45000 kPa	703.9	708.6	714.1	721.3	730.8	742.1	757.3	777.6
313.15 K, 50000 kPa	707.1	711.9	717.4	724.7	734.1	745.4	760.6	780.9
313.15 K, 55000 kPa	710.1	715.1	720.6	727.9	737.3	748.6	763.8	784.1
313.15 K, 60000 kPa	713.1	718.1	723.6	730.9	740.2	751.6	766.9	787.1
313.15 K, 65000 kPa	716	721	726.6	733.9	743.2	754.7	769.9	790.1
323.15 K, 100 kPa	657.7	661.8	666.9	674.1	683.5	695	710.6	731.7
323.15 K, 5000 kPa	663.4	667.4	672.6	679.7	689.2	700.5	716.1	737
323.15 K, 10000 kPa	668.7	672.7	678	685.2	694.6	705.8	721.3	742.1
323.15 K, 15000 kPa	673.4	677.6	682.9	690	699.4	710.7	726.1	746.7
323.15 K, 20000 kPa	678	682.2	687.6	694.7	704	715.3	730.6	751.1
323.15 K, 25000 kPa	682.5	686.8	692.1	699.2	708.5	719.8	735.1	755.5
323.15 K, 30000 kPa	686.5	690.9	696.2	703.4	712.7	723.9	739.1	759.5
323.15 K, 35000 kPa	690.4	694.7	700	707.3	716.6	727.8	743	763.4
323.15 K, 40000 kPa	694.1	698.5	703.7	711	720.4	731.6	746.8	767
323.15 K, 45000 kPa	697.7	702	707.4	714.6	724	735.2	750.3	770.6
323.15 K, 50000 kPa	701.1	705.4	710.8	718	727.4	738.6	753.8	774
323.15 K, 55000 kPa	704.3	708.6	714	721.3	730.6	741.9	757	777.2
323.15 K, 60000 kPa	707.4	711.8	717.2	724.5	733.8	745.1	760.2	780.3
323.15 K, 65000 kPa	710.3	714.7	720.2	727.5	736.8	748.1	763.2	783.4
333.15 K, 100 kPa	649.1	652.3	657.3	664.5	673.7	685.1	700.9	722.2
333.15 K, 5000 kPa	655.2	658.4	663.4	670.7	679.9	691.2	706.8	727.9
333.15 K, 10000 kPa	661	664.2	669.4	676.6	685.7	697	712.4	733.4
333.15 K, 15000 kPa	666.3	669.6	674.7	681.9	691.1	702.3	717.7	738.5
333.15 K, 20000 kPa	670.9	674.4	679.6	686.7	696	707.1	722.5	743.2
333.15 K, 25000 kPa	675.4	678.8	684.3	691.4	700.6	711.8	727	747.5
333.15 K, 30000 kPa	679.7	683.1	688.7	695.7	704.9	716	731.3	751.7
333.15 K, 35000 kPa	683.8	687.1	692.8	699.9	709.1	720.1	735.4	755.8
333.15 K, 40000 kPa	687.6	690.9	696.6	703.8	713	724	739.2	759.6
333.15 K, 45000 kPa	691.3	694.6	700.4	707.5	716.7	727.7	743	763.3
333.15 K, 50000 kPa	694.8	698.2	704	711.2	720.3	731.4	746.6	766.8
333.15 K, 55000 kPa	698.4	701.7	707.6	714.7	723.9	735	750.2	770.4
333.15 K, 60000 kPa	701.5	705	710.8	718	727.2	738.2	753.4	773.6
333.15 K, 65000 kPa	704.7	708.1	714	721.3	730.4	741.4	756.7	776.8
